# Source: PubChem BioAssay (NCI)
# Where “and” joins values, the source holds several entries; their conditions need not be identical. Equal entries are not always repeated.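 Following 48 hours of exposure in 96-well plates, responses at five concentrations were used to interpolate endpoints linearly. Here, GI50 denotes the concentration required for 50% inhibition of growth. TGI marks complete inhibition of growth.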
# How the values were obtained:
# Experiment in all cases: NCI-60 cell line screen, 48 h
# OVCAR-3 ovarian = tested on: OVCAR-3 ovarian
# HT29 colon = tested on: HT29 colon
# NCI-H23 lung = tested on: NCI-H23 lung
# SF-539 CNS = tested on: SF-539 CNS
# SNB-19 CNS = tested on: SNB-19 CNS
# M19-MEL melanoma = tested on: M19-MEL melanoma
# NCI-H522 lung = tested on: NCI-H522 lung
# SK-MEL-2 melanoma = tested on: SK-MEL-2 melanoma
# HCC-2998 colon = tested on: HCC-2998 colon
# UACC-62 melanoma = tested on: UACC-62 melanoma
# A498 renal = tested on: A498 renal
# HOP-92 NSCLC = tested on: HOP-92 NSCLC
# UO-31 renal = tested on: UO-31 renal
# SK-OV-3 ovarian = tested on: SK-OV-3 ovarian
# M14 melanoma = tested on: M14 melanoma
# COLO 205 colon = tested on: COLO 205 colon
# NCI-H460 lung = tested on: NCI-H460 lung
# NCI-H226 lung = tested on: NCI-H226 lung
# RXF 393 renal = tested on: RXF 393 renal
# CAKI-1 renal = tested on: CAKI-1 renal
# CCRF-CEM leukemia = tested on: CCRF-CEM leukemia
# UACC-257 melanoma = tested on: UACC-257 melanoma
# EKVX NSCLC = tested on: EKVX NSCLC
# SR leukemia = tested on: SR leukemia
# K-562 leukemia = tested on: K-562 leukemia
# SW-620 colon = tested on: SW-620 colon
# SK-MEL-5 melanoma = tested on: SK-MEL-5 melanoma
# SN12C renal = tested on: SN12C renal
# SK-MEL-28 melanoma = tested on: SK-MEL-28 melanoma
# SNB-75 CNS = tested on: SNB-75 CNS
# RPMI-8226 leukemia = tested on: RPMI-8226 leukemia
# 786-0 renal = tested on: 786-0 renal
# MALME-3M melanoma = tested on: MALME-3M melanoma
# TK-10 renal = tested on: TK-10 renal
# HCT-15 colon = tested on: HCT-15 colon
# A549 NSCLC = tested on: A549 NSCLC
# MOLT-4 leukemia = tested on: MOLT-4 leukemia
# LXFL 529 NSCLC = tested on: LXFL 529 NSCLC
# HOP-18 NSCLC = tested on: HOP-18 NSCLC
# IGROV1 ovarian = tested on: IGROV1 ovarian
# ACHN renal = tested on: ACHN renal
# U251 CNS = tested on: U251 CNS
# HOP-62 NSCLC = tested on: HOP-62 NSCLC
# SF-268 CNS = tested on: SF-268 CNS
# OVCAR-4 ovarian = tested on: OVCAR-4 ovarian
# DLD-1 colon = tested on: DLD-1 colon
# SNB-78 CNS = tested on: SNB-78 CNS
# HCT-116 colon = tested on: HCT-116 colon
# OVCAR-5 ovarian = tested on: OVCAR-5 ovarian
# SF-295 CNS = tested on: SF-295 CNS
# KM12 colon = tested on: KM12 colon
# DMS 273 small cell lung = tested on: DMS 273 small cell lung
# LOX IMVI melanoma = tested on: LOX IMVI melanoma
# KM20L2 colon = tested on: KM20L2 colon
# BT-549 breast = tested on: BT-549 breast
# T-47D breast = tested on: T-47D breast
compound,measurement,setting,value
Cc1ccc(C)c(NC(=O)CC/C(=N\NC(=O)C(=O)NN)C(C)C(=O)c2ccc(O)cc2)c1 (stereo unspecified),TGI,OVCAR-3 ovarian,> 100 µM
same,TGI,HT29 colon,> 100 µM
same,TGI,NCI-H23 lung,> 100 µM
same,TGI,SF-539 CNS,> 100 µM
same,TGI,SNB-19 CNS,> 100 µM
same,TGI,M19-MEL melanoma,> 100 µM
same,TGI,NCI-H522 lung,> 100 µM
same,TGI,SK-MEL-2 melanoma,> 100 µM
same,TGI,HCC-2998 colon,> 100 µM
same,TGI,UACC-62 melanoma,> 100 µM
same,TGI,A498 renal,> 100 µM
same,TGI,HOP-92 NSCLC,> 100 µM
same,TGI,UO-31 renal,> 100 µM
same,TGI,SK-OV-3 ovarian,> 100 µM
same,TGI,M14 melanoma,> 100 µM
same,TGI,COLO 205 colon,> 100 µM
same,TGI,NCI-H460 lung,> 100 µM
same,TGI,NCI-H226 lung,> 100 µM
same,TGI,RXF 393 renal,> 100 µM
same,TGI,CAKI-1 renal,> 100 µM
same,TGI,CCRF-CEM leukemia,> 100 µM
same,TGI,UACC-257 melanoma,> 100 µM
same,TGI,EKVX NSCLC,> 100 µM
same,TGI,SR leukemia,> 100 µM
same,TGI,K-562 leukemia,> 100 µM
same,TGI,SW-620 colon,> 100 µM
same,TGI,SK-MEL-5 melanoma,> 100 µM
same,TGI,SN12C renal,> 100 µM
same,TGI,SK-MEL-28 melanoma,> 100 µM
same,TGI,SNB-75 CNS,> 100 µM
same,TGI,RPMI-8226 leukemia,> 100 µM
same,TGI,786-0 renal,> 100 µM
same,TGI,MALME-3M melanoma,> 100 µM
same,TGI,TK-10 renal,> 100 µM
same,TGI,HCT-15 colon,> 100 µM
same,TGI,A549 NSCLC,> 100 µM
same,TGI,MOLT-4 leukemia,> 100 µM
same,TGI,LXFL 529 NSCLC,> 100 µM
same,TGI,HOP-18 NSCLC,> 100 µM
same,TGI,IGROV1 ovarian,> 100 µM
same,TGI,ACHN renal,> 100 µM
same,TGI,U251 CNS,> 100 µM
same,TGI,HOP-62 NSCLC,> 100 µM
same,TGI,SF-268 CNS,> 100 µM
same,TGI,OVCAR-4 ovarian,> 100 µM
same,TGI,DLD-1 colon,> 100 µM
same,TGI,SNB-78 CNS,> 100 µM
same,TGI,HCT-116 colon,> 100 µM
same,TGI,OVCAR-5 ovarian,> 100 µM
same,TGI,SF-295 CNS,> 100 µM
same,TGI,KM12 colon,> 100 µM
same,TGI,DMS 273 small cell lung,> 100 µM
same,TGI,LOX IMVI melanoma,> 100 µM
same,TGI,KM20L2 colon,> 100 µM
Nc1nc(=S)c2ncn(C3CC(O)C(CO)O3)c2[nH]1 (stereo unspecified),TGI,BT-549 breast,883 µM and 4760 µM
same,TGI,HT29 colon,> 466 µM and 2190 µM
same,GI50,SNB-19 CNS,77.3 µM and 753 µM
same,TGI,SNB-19 CNS,> 5000 µM
same,TGI,M19-MEL melanoma,> 4680 µM
same,TGI,NCI-H226 lung,639 µM and > 5000 µM
same,TGI,T-47D breast,438 µM and > 3110 µM
same,TGI,K-562 leukemia,333 µM and 2590 µM
same,TGI,SW-620 colon,385 µM and 3540 µM
same,TGI,SN12C renal,353 µM and 3130 µM
same,TGI,SK-MEL-28 melanoma,594 µM and > 5000 µM
same,TGI,SNB-75 CNS,377 µM and 3000 µM
same,TGI,786-0 renal,> 2350 µM
same,TGI,HOP-18 NSCLC,> 983 µM and 4020 µM
same,TGI,IGROV1 ovarian,521 µM and 2870 µM
same,TGI,U251 CNS,901 µM and > 4730 µM
same,TGI,SF-268 CNS,555 µM and > 5000 µM
same,TGI,DLD-1 colon,340 µM and 1740 µM
same,TGI,SNB-78 CNS,> 5000 µM
same,TGI,SF-295 CNS,382 µM and 3310 µM
same,TGI,KM12 colon,75 µM and 700 µM
same,TGI,KM20L2 colon,421 µM and 2940 µM
